Measurements published in patent US5523223A, “Ketoester reductase for conversion of keto acid esters to optically active hydroxy acid esters” (priority 1992, dated 1996).
Values joined by “and” are separate entries in the source; they are usually repeats but may differ in a detail not shown here. Identical values can stand only once. “Also recorded” adds a separate entry of the source. Like-named read-outs stand apart in the source and are kept apart here.

Assays:
[1] = system: KERed from C. parapsilosis; test: Inhibition study of the KERed (influence of metal cations and reagents); assay type: biochemical, Candida parapsilosis
Excerpt: For the following investigation, partially purified enzyme (after Q-sepharose chromatography, 67-times enrichment) was used. […]
5-oxohexanoic acid ethyl ester
TEA-NaOH-buffer, 0.1 M; pH 7.9
The influence of various metal cations and reagents upon the enzymatic activity was investigated in tests in which the test preparation described under example 3.B was used.

[2] = system: KERed from Y. cellobiosa; test: Screening of crude extract for ketoester reductase activity (photometric NAD(P)H decrease); assay type: biochemical, Yarrowinia cellobiosa; conditions: 8 mM ketoester, TEA-NaOH buffer pH 7, mU/mg protein; for NADH dependent specific activity: 0.2 mM NADH; for NADPH-dependent specific activity: 0.2 mM NADPH
Experimental: (§1) For screening collection strains of the DSM (German Collection of Microorganisms and Cell Cultures, Braunschweig) is cultured in the DSM recommended medium, the cell mass is harvested by centrifugation and disintegrated by wet milling. A permanent deposit of Candida parapsilosis DSM 70125 has been deposited on 29 Mar. 1979 in accordance with the requirements of the Budapest Treaty. The address of the depository is as follows: German Collection of Microorganisms and Cell Cultures, DSM-Mascheroder Weg 1B, Braunschweig, Germany. The supernatant served as the enzyme source (crude extract) and was investigated for ketoester reductase activity. The test was carried out photometrically and the test mixture contained the following components.
(§2) 0.1M triethanoleamine (TEA)-NaOH-Buffer, pH 7
(§3) Limited amounts of the crude extract.
(§4) The NAD(P)H-decrease at 334nm over a period of 1 minute was followed: For activity calculation, an absorption coefficient of […] was used. […] One U (unit) corresponds to the consumption and conversion of 1 μmole of reduced coenzyme per minute.

[3] = system: KERed from R. erythropolis; test: as above; assay type: biochemical, Rhodococcus erythropolis; conditions: 0.2 mM NADH, 8 mM ketoester, TEA-NaOH buffer pH 7, mU/mg protein
Experimental: as §1, §2, §3, §4

[4] = system: KERed from P. acidovorans; test: as above; assay type: biochemical, Pseudomonas acidovorans; conditions: 8 mM ketoester, TEA-NaOH buffer pH 7, mU/mg protein; for NADH dependent specific activity: 0.2 mM NADH
Experimental: as §1, §2, §3, §4

[5] = system: KERed from Candida parapsilosis; test: Kinetic characterization of the KERed; assay type: biochemical; conditions: partially purified enzyme; for Vmax: referred to 2-butanone
[6] = system: KERed from C. parapsilosis; test: Screening of crude extract for ketoester reductase activity (photometric NAD(P)H decrease); assay type: biochemical, Candida parapsilosis; conditions: 8 mM ketoester, TEA-NaOH buffer pH 7, mU/mg protein; for NADH dependent specific activity: 0.2 mM NADH; for NADPH-dependent specific activity: 0.2 mM NADPH
Experimental: as §1, §2, §3, §4

[7] = compound 0.1 mM, 35 mM 5-oxohexanoic acid ethyl ester, 0.2 mM NADH, pH 7.9
[8] = compound 1.0 mM, 35 mM 5-oxohexanoic acid ethyl ester, 0.2 mM NADH, pH 7.9
[9] = summary statements of the inhibition study

## O[C@@H](CS)[C@@H](O)CS (racemic) [1,4-Dithiothreitol]
[1]; [7]
  Residual Activity: 100%
[1]; [8]
  Residual Activity: 100%
[1]; [9]
  Influence on KERed activity (in words): Stabilization

## c1ccc(-c2ccccn2)nc1 [2,2'-bipyridyl]
[1]; 2,2'-bipyridyl 0.05 mM
  Residual Activity: 52%
[1]; 2,2'-bipyridyl 0.5 mM
  Residual Activity: 23%
[1]; [9]
  Influence on KERed activity (in words): Strong inhibition

## CCOC(=O)CC(C)=O [AEEE, acetoacetic acid ethyl ester]
[2]
  NADH dependent specific activity: 103.1 mU/mg
  NADPH-dependent specific activity: 5.0 mU/mg
[3]
  NADH dependent specific activity: 153.0 mU/mg
[4]
  NADH dependent specific activity: 49.0 mU/mg
[5]
  Km: 122 µM
  Vmax: 79%

## [Ag+] [Ag^+]
[1]; [7]
  Residual Activity: 0%
[1]; [8]
  Residual Activity: 0%
[1]; [9]
  Influence on KERed activity (in words): Rapid deactivation

## CCCC(=O)CC(=O)OCC [BEEE, butyrylacetic acid ethy ester]
[6]
  NADH dependent specific activity: 49.0 mU/mg
  NADPH-dependent specific activity: 25.0 mU/mg
[2]
  NADH dependent specific activity: 20.3 mU/mg
[3]
  NADH dependent specific activity: 3.0 mU/mg
[4]
  NADH dependent specific activity: 11.6 mU/mg
[4]; 0.2 mM NADPH
  NADPH-dependent specific activity: 15.6 mU/mg
[5]
  Km: 1300 µM
  Vmax: 5%

## [Ca+2] [Ca^2+]
[1]; [7]
  Residual Activity: 78%
[1]; [8]
  Residual Activity: 68%

## [Co+2] [Co^2+]
[1]; [7]
  Residual Activity: 38%
[1]; [8]
  Residual Activity: 12%
[1]; [9]
  Influence on KERed activity (in words): Rapid deactivation

## [Cu+2] [Cu^2+]
[1]; [7]
  Residual Activity: 0%
[1]; [8]
  Residual Activity: 0%
[1]; [9]
  Influence on KERed activity (in words): Rapid deactivation

## CCOC(=O)OC(=O)OCC [Diethyl Pyrocarbonate]
[1]; [7]
  Residual Activity: 100%
[1]; [8]
  Residual Activity: 100%

## O=C(O)CN(CCN(CC(=O)O)CC(=O)O)CC(=O)O [EDTA]
[1]
  Influence on KERed activity (in words): practically not inhibited
  Residual Activity: 100% and 80%

## CCO [Ethanol]
[5]
  Km: 3400 µM
  Vmax: 42%
[1]; Ethanol 5%
  Residual Activity: 30%

## [Fe+3] [Fe^3+]
[1]; [7]
  Residual Activity: 100%

## N[C@@H](CCC(=O)N[C@@H](CS)C(=O)NCC(=O)O)C(=O)O [Glutathione (reduced), Glutathione]
[1]; [7]
  Residual Activity: 100%
[1]; [8]
  Residual Activity: 100%

## [Hg+2] [Hg^2+]
[1]; [7]
  Residual Activity: 0%
[1]; [8]
  Residual Activity: 0%
[1]; [9]
  Influence on KERed activity (in words): Rapid deactivation

## NC(=O)CI [Iodoacetamide]
[1]; [7]
  Residual Activity: 77%
[1]; [8]
  Residual Activity: 17.5%
[1]; [9]
  Influence on KERed activity (in words): Strong inhibition

## CCOC(=O)CCC(C)=O [LSEE, levulinic acid ethyl ester]
[6]
  NADH dependent specific activity: 85.1 mU/mg
  NADPH-dependent specific activity: 1.3 mU/mg
[2]
  NADH dependent specific activity: 41.1 mU/mg
  NADPH-dependent specific activity: 4.0 mU/mg
[3]
  NADH dependent specific activity: 87.1 mU/mg
[4]
  NADH dependent specific activity: 4.1 mU/mg
[5]
  Km: 1730 µM
  Vmax: 12%

## CC(=O)C=O [Methylglyoxal]
[1]; [7]
  Residual Activity: 100%
[1]; [8]
  Residual Activity: 34%

## [Mg+2] [Mg^2+]
[1]; [7]
  Residual Activity: 91%
[1]; [8]
  Residual Activity: 82%

## [Mn+2] [Mn^2+]
[1]; [7]
  Residual Activity: 84%
[1]; [8]
  Residual Activity: 80%

## CCN1C(=O)C=CC1=O [N-ethylmaleimide]
[1]; [7]
  Residual Activity: 70%
[1]; [8]
  Residual Activity: 47%

## [Ni+2] [Ni^2+]
[1]; [7]
  Residual Activity: 10%
[1]; [8]
  Residual Activity: 0%
[1]; [9]
  Influence on KERed activity (in words): Rapid deactivation

## [Pb+2] [Pb^2+]
[1]; [7]
  Residual Activity: 0%
[1]; [8]
  Residual Activity: 0%
[1]; [9]
  Influence on KERed activity (in words): Rapid deactivation

## Cl.NCCc1ccc(S(=O)(=O)F)cc1 [Pefabloc]
[1]; [8]
  Residual Activity: 100%

## [Sn+2] [Sn^2+]
[1]; [7]
  Residual Activity: 73%
[1]; [8]
  Residual Activity: 0%
[1]; [9]
  Influence on KERed activity (in words): Rapid deactivation

## [Zn+2] [Zn^2+]
[1]; [7]
  Residual Activity: 24%
[1]; [8]
  Residual Activity: 0%

## c1cnc2c(c1)ccc1cccnc12 [o-Phenanthroline]
[1]; [7]
  Residual Activity: 26%
[1]; [9]
  Influence on KERed activity (in words): relatively strongly inhibited; also recorded: Strong inhibition

## O=C(O)c1cc[c]([Hg+])cc1.[OH-] [p-Hydroxymercuribenzoate]
[1]; [7]
  Residual Activity: 0%
[1]; [8]
  Residual Activity: 0%
[1]; [9]
  Influence on KERed activity (in words): Strong inhibition

## Triton X-100
[1]; Triton X-100 0.1%
  Residual Activity: 100%
